# Columns and labels:
# Plasmopara viticola = assay: Plasmopara test (grapevine)/protective; assay type: in vivo; conditions: grapevine plants, protective spray, 10 ppm active ingredient, evaluation 6 days after inoculation, 0% = control, 100% = no infection; for pest or weed control at 10 ppm: Plasmopara viticola, 144 h, read-out: efficacy
# Protocol: Plasmopara Test (Grapevine)/Protective
# To prepare an appropriate active ingredient preparation, 1 part by weight of active ingredient is mixed with the stated amounts of solvent and emulsifier, and the concentrate is diluted with water to the desired concentration.
# To test for protective efficacy, young plants are sprayed with the active ingredient preparation at the stated application rate. After the spray coating has dried on, the plants are inoculated with an aqueous spore suspension of Plasmopara viticola and then remain in an incubation cabinet at about 20° C. and 100% relative atmospheric humidity for 1 day. The plants are then placed in a greenhouse at approx. 21° C. and approx. 90% air humidity for 4 days. The plants are then moistened and placed in an incubation cabinet for 1 day.
# Evaluation follows 6 days after the inoculation.
# [1] = for logp [b] / log P (HCOOH): pH 2.7; for logp [a]: pH 2.3; for logp [c]: pH 7.8
# From the text: (§1) The determination is effected in the acidic range at pH 2.3 using 0.1% aqueous phosphoric acid and acetonitrile as eluents; linear gradient from 10% acetonitrile to 95% acetonitrile. • ^[b] The LC-MS determination in the acidic range is effected at pH 2.7 using 0.1% aqueous formic acid and acetonitrile (contains 0.1% formic acid) as eluents; linear gradient from 10% acetonitrile to 95% acetonitrile. • ^[c] The LC-MS determination in the neutral range is effected at pH 7.8 using 0.001 molar aqueous ammonium hydrogencarbonate solution and acetonitrile as eluents; linear gradient from 10% acetonitrile to 95% acetonitrile.
# (§2) The calibration is effected with unbranched alkan-2-ones (having 3 to 16 carbon atoms) with known log P values (determination of the log P values using the retention times by linear interpolation between two successive alkanones).
# Phytophthora infestans = assay: whole plant or invertebrate; assay type: in vivo; conditions: for pest or weed control at 10 ppm: Phytophthora infestans, in Solanum lycopersicum, 72 h, read-out: efficacy
# From the text for physchem: as §1, §2
compound,measurement,setting,value
O=C(Cn1nc(C(F)F)cc1C(F)F)N1CCC(F)(c2nc(C3=NOC(c4ccccc4F)C3)cs2)CC1 (racemic) [I-4],efficacy,Plasmopara viticola,100%
same,logp [b],[1],3.49^[b]
CC#CCOc1ccccc1C1CC(c2csc(C3CCN(C(=O)Cn4nc(C(F)F)cc4C(F)F)CC3)n2)=NO1 (racemic) [I-35],efficacy,"Phytophthora infestans; tomato plants, protective spray, 10 ppm active ingredient, evaluation 3 days after inoculation, 0% = control, 100% = no infection",88%
same,logp [a],[1],3.65^[a]
same,logp [c],[1],3.55^[c];
"C=CCOc1ccccc1C1CC(c2csc(C3CCN(C(=O)Cn4nc(C(F)F)cc4C(F)F)CC3)n2)=NO1 (stereo not drawn) [I-14, 1-[4-(4-{5-[2-(Allyloxy)phenyl]-4,5-dihydro-1,2-oxazol-3-yl}-1,3-thiazol-2-yl)piperidin-1-yl]-2-[3,5-bis(difluoromethyl)-1H-pyrazol-1-yl]ethanone]",pest or weed control at 10 ppm,Phytophthora infestans,98%
same,pest or weed control at 10 ppm,Plasmopara viticola,100%
same,chromatographic logP,"physchem; pH 2.7, logp [b]",3.63
same,chromatographic logP,"physchem; pH 7.8, logp [c]",3.65
CC#CCOc1ccc(C2CC(c3csc(C4CCN(C(=O)Cn5nc(C(F)F)cc5C(F)F)CC4)n3)=NO2)cc1 (racemic) [I-48],logp [a],[1],3.43^[a]
same,logp [c],[1],3.42^[c];
O=C(Cn1nc(C(F)F)cc1C(F)F)N1CCC(c2nc(C3=NOC(c4ccccc4COCC(F)(F)F)C3)cs2)CC1 (racemic) [I-52],logp [b],[1],3.4^[b]
same,logp [c],[1],3.6^[c];
"O=C(Cn1nc(C(F)F)cc1C(F)F)N1CCC(c2nc(C=NO)cs2)CC1 [2-(1-{[3,5-Bis(difluoromethyl)-1H-pyrazol-1-yl]acetyl}piperidin-4-yl)-1,3-thiazole-4-carbaldehyde oxime]",log P (HCOOH),[1],1.98
same,chromatographic logP,"physchem; pH 2.7, log P (HCOOH)",1.93
"O=C(Cn1nc(C(F)F)cc1C(F)F)N1CCC(F)(c2nc(C3=NOC(c4ccccc4)C3)cs2)CC1 (stereo not drawn) [I-5, 2-[3,5-bis(difluoromethyl)-1H-pyrazol-1-yl]-1-{4-fluoro-4-[4-(5-phenyl-4,5-dihydro-1,2-oxazol-3-yl)-1,3-thiazol-2-yl]piperidin-1-yl}ethanone]",pest or weed control at 10 ppm,Phytophthora infestans,93%
same,pest or weed control at 10 ppm,Plasmopara viticola,97%
same,chromatographic logP,"physchem; pH 2.7, log P (HCOOH)",3.41
same,chromatographic logP,"physchem; pH 2.7, logp [b]",3.41
CCCCOCc1ccccc1C1CC(c2csc(C3CCN(C(=O)Cn4nc(C(F)F)cc4C(F)F)CC3)n2)=NO1 (racemic) [I-16],logp [b],[1],4.24^[b]
O=C(CC(F)(F)F)Oc1ccccc1C1CC(c2csc(C3CCN(C(=O)Cn4nc(C(F)F)cc4C(F)F)CC3)n2)=NO1 (racemic) [I-36],logp [a],[1],9.43^[a];
same,logp [c],[1],3.52^[c]
C#CCOc1cccc(F)c1C1CC(c2csc(C3CCN(C(=O)Cn4nc(C(F)F)cc4C(F)F)CC3)n2)=NO1 (racemic) [I-30],logp [a],[1],3.18^[a];
same,logp [c],[1],3.15^[c]
CCC#CCOc1cccc(C2CC(c3csc(C4CCN(C(=O)Cn5nc(C(F)F)cc5C(F)F)CC4)n3)=NO2)c1 (racemic) [I-34],logp [a],[1],3.83^[a]
same,logp [c],[1],3.74^[c];
"CC(C)=CCOc1ccccc1C1CC(c2csc(C3CCN(C(=O)Cn4nc(C(F)F)cc4C(F)F)CC3)n2)=NO1 (stereo not drawn) [I-20, 2-[3,5-Bis(difluoromethyl)-1H-pyrazol-1-yl]-1-{4-[4-(5-{2-[(3-methylbut-2-en-1-yl)oxy]phenyl}-4,5-dihydro-1,2-oxazol-3-yl)-1,3-thiazol-2-yl]piperidin-1-yl}ethanone]",pest or weed control at 10 ppm,Phytophthora infestans,95%
same,pest or weed control at 10 ppm,Plasmopara viticola,98%
same,chromatographic logP,"physchem; pH 2.7, logp [b]",4.19
same,chromatographic logP,"physchem; pH 7.8, logp [c]",4.11
"N=C(N)SCc1ccccc1C1CC(c2csc(C3CCN(C(=O)Cn4nc(C(F)F)cc4C(F)F)CC3)n2)=NO1 (stereo not drawn) [2-{3-[2-(1-{[3,5-Bis(difluoromethyl)-1H-pyrazol-1-yl]acetyl}piperidin-4-yl)-1,3-thiazol-4-yl]-4,5-dihydro-1,2-oxazol-5-yl}benzyl imidothiocarbamate]",log P (HCOOH),[1],1.68
"tert-Butyl 4-[4-(5-{2-[(cyclopropylmethoxy)carbonyl]phenyl}-4,5-dihydro-1,2-oxazol-3-yl)-1,3-thiazol-2-yl]piperidine-1-carboxylate [X-a-10]",log P (HCOOH),[1],4.99
CCS(=O)(=O)Cc1ccccc1C1CC(c2csc(C3CCN(C(=O)Cn4nc(C(F)F)cc4C(F)F)CC3)n2)=NO1 (racemic) [I-53],logp [b],[1],2.76^[b]
"O=C(Cn1nc(C(F)F)cc1C(F)F)N1CCC(c2nc(C3=NOC(c4ccccc4[N+](=O)[O-])C3)cs2)CC1 (stereo not drawn) [I-10, 2-[3,5-Bis(difluoromethyl)-1H-pyrazol-1-yl]-1-(4-{4-[5-(2-nitrophenyl)-4,5-dihydro-1,2-oxazol-3-yl]-1,3-thiazol-2-yl}piperidin-1-yl)ethanone]",pest or weed control at 10 ppm,Phytophthora infestans,97%
same,pest or weed control at 10 ppm,Plasmopara viticola,100%
same,chromatographic logP,"physchem; pH 2.7, logp [b]",3.19
CC#CCOc1cccc(F)c1C1CC(c2csc(C3CCN(C(=O)Cn4nc(C(F)F)cc4C(F)F)CC3)n2)=NO1 (racemic) [I-29],logp [a],[1],3.46^[a];
same,logp [c],[1],3.42^[c]
"O=C(Cn1nc(C(F)F)cc1C(F)F)N1CCC(c2nc(C3=NOC(c4c(O)cccc4Cl)C3)cs2)CC1 (stereo not drawn) [I-54, 2-[3,5-Bis(difluoromethyl)-1H-pyrazol-1-yl]-1-(4-{4-[5-(2-chloro-6-hydroxyphenyl)-4,5-dihydro-1,2-oxazol-3-yl]-1,3-thiazol-2-yl}piperidin-1-yl)ethanone]",chromatographic logP,"physchem; pH 2.7, log P (HCOOH)",2.94
same,chromatographic logP,"physchem; pH 2.7, logp [b]",2.94
O=C(Oc1ccccc1C1CC(c2csc(C3CCN(C(=O)Cn4nc(C(F)F)cc4C(F)F)CC3)n2)=NO1)C1CC1 (racemic) [I-33],logp [a],[1],3.34^[a]
same,logp [c],[1],3.28^[c];
"O=C(Oc1ccccc1C1CC(c2csc(C3CCN(C(=O)Cn4nc(C(F)F)cc4C(F)F)CC3)n2)=NO1)C1CCCCC1 (stereo not drawn) [I-32, 2-{3-[2-(1-{[3,5-bis(difluoromethyl)-1H-pyrazol-1-yl]acetyl}piperidin-4-yl)-1,3-thiazol-4-yl]-4,5-dihydro-1,2-oxazol-5-yl}phenyl cyclohexanecarboxylate]",chromatographic logP,physchem; pH 2.3,4.27
same,chromatographic logP,"physchem; pH 7.8, logp [c]",4.19
"CC(C)(C)OC(=O)N1CCC(c2nc(C3=NOC(c4ccccc4C=O)C3)cs2)CC1 (stereo not drawn) [X-a-3, tert-Butyl 4-{4-[5-(2-formylphenyl)-4,5-dihydro-1,2-oxazol-3-yl]-1,3-thiazol-2-yl}piperidine-1-carboxylate]",chromatographic logP,"physchem; pH 2.7, log P (HCOOH)",3.76
"C#Cc1ccccc1C1CC(c2csc(C3CCN(C(=O)Cn4nc(C(F)F)cc4C(F)F)CC3)n2)=NO1 (stereo not drawn) [I-38, 2-[3,5-Bis(difluoromethyl)-1H-pyrazol-1-yl]-1-(4-{4-[5-(2-ethynylphenyl)-4,5-dihydro-1,2-oxazol-3-yl]-1,3-thiazol-2-yl}piperidin-1-yl)ethanone]",chromatographic logP,"physchem; pH 2.7, logp [b]",3.36
"CC(C)(C)OC(=O)N1CCC(F)(c2nc(C=NO)cs2)CC1 (mixture of isomers) [tert-Butyl 4-fluoro-4-{4-[(E/Z)-(hydroxyimino)methyl]-1,3-thiazol-2-yl}piperidine-1-carboxylate]",log P (HCOOH),[1],2.53
"O=C(Cn1nc(C(F)F)cc1C(F)F)N1CCC(c2nc(C3=NOC(c4ccccc4OCC4CCCCC4)C3)cs2)CC1 (stereo not drawn) [I-24, 2-[3,5-Bis(difluoromethyl)-1H-pyrazol-1-yl]-1-[4-(4-{5-[2-(cyclohexylmethoxy)phenyl]-4,5-dihydro-1,2-oxazol-3-yl}-1,3-thiazol-2-yl)piperidin-1-yl]ethanone]",chromatographic logP,physchem; pH 2.3,4.9
same,chromatographic logP,physchem; pH 7.8,4.9
"O=Cc1csc(C2CCN(C(=O)Cn3nc(C(F)F)cc3C(F)F)CC2)n1 [VI-2, 2-(1-{[3,5-Bis(difluoromethyl)-1H-pyrazol-1-yl]acetyl}piperidin-4-yl)-1,3-thiazole-4-carbaldehyde]",chromatographic logP,"physchem; pH 2.7, log P (HCOOH)",1.93
"Oc1ccccc1C1CC(c2csc(C3CCNCC3)n2)=NO1 (stereo not drawn) [XII-5, 4-{4-[5-(2-Hydroxyphenyl)-4,5-dihydro-1,2-oxazol-3-yl]-1,3-thiazol-2-yl}piperidinium chloride]",chromatographic logP,"physchem; pH 2.7, log P (pH2.7)",0.69
CCC#CCOc1ccc(C2CC(c3csc(C4CCN(C(=O)Cn5nc(C(F)F)cc5C(F)F)CC4)n3)=NO2)cc1 (racemic) [I-47],logp [a],[1],3.76^[a]
same,logp [c],[1],3.74^[c];
"CCSCc1ccccc1C1CC(c2csc(C3CCN(C(=O)Cn4nc(C(F)F)cc4C(F)F)CC3)n2)=NO1 (stereo not drawn) [I-12, 2-[3,5-Bis(difluoromethyl)-1H-pyrazol-1-yl]-1-{4-[4-(5-{2-[(ethylsulphanyl)methyl]phenyl}-4,5-dihydro-1,2-oxazol-3-yl)-1,3-thiazol-2-yl]piperidin-1-yl}ethanone]",chromatographic logP,"physchem; pH 2.7, logp [b]",3.9
"CC(C)(C)OC(=O)N1CCC(c2nc(C3=NOC(c4ccccc4O)C3)cs2)CC1 (stereo not drawn) [X-a-5, tert-Butyl 4-{4-[5-(2-hydroxyphenyl)-4,5-dihydro-1,2-oxazol-3-yl]-1,3-thiazol-2-yl}piperidine-1-carboxylate]",chromatographic logP,"physchem; pH 2.7, log P (pH2.7)",3.22
"C#CCOc1cccc(Cl)c1C1CC(c2csc(C3CCN(C(=O)Cn4nc(C(F)F)cc4C(F)F)CC3)n2)=NO1 (stereo not drawn) [I-49, 2-[3,5-bis(difluoromethyl)-1H-pyrazol-1-yl]-1-[4-(4-{5-[2-chloro-6-(prop-2-yn-1-yloxy)phenyl]-4,5-dihydro-1,2-oxazol-3-yl}-1,3-thiazol-2-yl)piperidin-1-yl]ethanone]",chromatographic logP,"physchem; pH 2.7, logp [b]",3.5
same,chromatographic logP,"physchem; pH 7.8, logp [c]",3.34

# From patent US9167821B2 (priority 2009, dated 2015)
